# Measured values reported in publication PMC12018048, “Intranasal kisspeptin administration rapidly stimulates gonadotropin release in humans” (eBioMedicine, 2025).
# Several values for one entry are separate records, joined by “and”; a condition that tells them apart may be missing. Equal entries are not always repeated.
# Experiments:
# [1] = test system: serum LH, FSH and testosterone; test: Intranasal kisspeptin-54, reproductive hormone profiles in healthy men; type: in vivo, human; settings: N = 12; for AUC of the change in serum LH / AUC of the change in serum testosterone / AUC of the change in serum FSH: 4 h sampling; for AUC of the change in serum LH / AUC of the change in serum testosterone / Max increase from baseline in serum testosterone / Maximum increase from baseline in serum FSH / Maximum increase from baseline in serum LH / AUC of the change in serum FSH: mean ± SEM; for Serum FSH over the sampling period, mean difference vs placebo / Serum LH over the sampling period, mean difference vs placebo: 4 h time profile
# Method: (§1) This was a randomised, double-blinded, crossover, placebo-controlled clinical study (Fig. 1, Fig. 2, Fig. 3a). Participants were admitted to the Clinical Research Unit (Imperial College Healthcare NHS Trust) and completed five (in healthy men) or two (in healthy women and patients with HA) study visits. […] Study visits in healthy women were conducted in the follicular phase of the menstrual cycle (i.e., days 2–10 inclusive) to control for changes in reproductive hormones over the course of the cycle and were conducted across two different menstrual cycles to allow washout.
# (§2) All studies commenced at 08:00 to control for circadian hormonal changes. Participants were instructed to abstain from alcohol, caffeine, and sexual activities from 22:00 preceding each study visit. On arrival, an intravenous cannula was inserted into one antecubital fossa, and blood was sampled at timepoints −30, −15, and 0 min, before intranasal administration of kisspeptin-54 or 0.9% saline (placebo). Following participant education (described below), healthy men self-administered the following 5 interventions under supervision in random order via the intranasal route: 3.2, 6.4, 12.8, and 25.6 nmol/kg of kisspeptin-54, or placebo. Healthy women and patients with HA attended for the same protocol comparing 12.8 nmol/kg of kisspeptin-54 and placebo in random order. After administration of kisspeptin-54 or placebo at timepoint 0 min, serum levels of LH, FSH, and testosterone (in men), or oestradiol and progesterone (in women) were measured every 15 min for 4 h. Heart rate, blood pressure, and the presence of adverse symptoms were recorded every 15 min.
# (§3) Kisspeptin-54 or placebo was self-administered using nasal spray devices that delivered a single volume of 100 μL per actuation (SP270+ pump, 3959 actuator, 5 mL SGD U-Save glass bottles provided by Nemera, La Verpillière, France). The kisspeptin-54 nasal spray solution formulations were prepared by reconstituting kisspeptin-54 powder stored in sterile vials on the morning of each study visit to produce a solution containing the target dose according to body weight in 400 μL.
# (§4) Participants were familiarised with the procedure of intranasal application and were provided with written administration instructions ahead of each study visit, as described in.[38] In addition, participants received a 5-min training session using a dummy nasal spray device before starting the study to ensure good technique, which all participants easily understood. Under instruction and supervision from the clinical team, participants primed the nasal sprays then self-administered a total of four sprays of kisspeptin-54 or placebo per visit (i.e., 4 × 100 μL), alternating between nostrils and leaving 60 s between sprays, to allow satisfactory dissipation and avoid solution running out of the nostrils. Nasal sprays containing kisspeptin or placebo were identical in appearance, volume, and administration technique.
# (§5) Blood samples were collected to measure serum reproductive hormone levels at the timepoints depicted in Fig. 1, Fig. 2, Fig. 3a. Serum samples were stored at −20 °C until analysis. Serum LH, FSH, testosterone (in men), and oestradiol and progesterone (in women) were measured using automated chemiluminescent immunoassays (Abbott Diagnostics, Maidenhead, UK: LH catalogue # 2P40-25, FSH catalogue # 7K75-25, testosterone catalogue # 07K7320, oestradiol catalogue # 7K72-25, progesterone catalogue # 7K77-25). Reference ranges: LH in international units per litre (IU/L), 2–12 (men), 2–10 (follicular), 20–60 (mid-cycle), 4–14 (luteal); FSH in IU/L, 1.7–8 (men), 1.5–8.0 (follicular and luteal), 10–50 (mid-cycle); in men: testosterone in nanomoles per litre (nmol/L), 10–30; and in women: oestradiol in picomoles per litre (pmol/L), <300 (early follicular), 400–1500 (mid-cycle), 200–1000 (luteal) and progesterone in nmol/L, <5.0 (follicular), 3.5–67 (luteal). […]
# [2] = test system: serum LH, FSH, oestradiol and progesterone; test: Intranasal kisspeptin-54, reproductive hormone profiles in healthy women; type: in vivo, human; settings: N = 12
# Method: as §1, §2, §3, §4, §5
# [3] = human, cited from earlier work
# Method: This was a randomised, double-blinded, crossover, placebo-controlled clinical study (Fig. 1, Fig. 2, Fig. 3a). Participants were admitted to the Clinical Research Unit (Imperial College Healthcare NHS Trust) and completed five (in healthy men) or two (in healthy women and patients with HA) study visits. […] Study visits in healthy women were conducted in the follicular phase of the menstrual cycle (i.e., days 2–10 inclusive) to contr ... || page 10: Research Governance and Integrity Team Throughout the study there will be at least one physician available 24 hours per day via a direct line, with a second physician on back up, and a secondary direct line to one of the senior physicians. […] Kisspeptin is rapidly cleared (11, 12) and participants would not be anticipated to experience any delayed effects on completion of the study visit. The Chief Investigato ...
# [4] = intranasal 3.2 nmol/kg vs placebo
# [5] = intranasal 6.4 nmol/kg vs placebo
# [6] = intranasal 6.4 nmol/kg, two-way ANOVA
# [7] = intranasal 12.8 nmol/kg vs placebo
# [8] = intranasal 12.8 nmol/kg, two-way ANOVA
# [9] = intranasal 25.6 nmol/kg vs placebo
# [10] = follicular phase, intranasal 12.8 nmol/kg, 4 h sampling, mean ± SEM
# [11] = follicular phase, intranasal 12.8 nmol/kg, mean ± SEM
# [12] = intranasal 12.8 nmol/kg vs placebo, paired t-test
# [13] = intranasal 12.8 nmol/kg, two-way ANOVA, 4 h time profile
substance,measurement,setting,value
Kisspeptin-54,"FSH AUC, mean difference vs placebo",[1]; [4],47.2 h·IU/L
same,"FSH maximum increase, mean difference vs placebo",[1]; [4],0.2 IU/L
same,"LH AUC, mean difference vs placebo",[1]; [4],197.6 h·IU/L
same,"LH maximum increase, mean difference vs placebo",[1]; [4],1.1 IU/L
same,"Testosterone AUC, mean difference vs placebo",[1]; [4],457.4 nmol·h/L
same,"Testosterone max increase, mean difference vs placebo",[1]; [4],1.5 nmol/L
same,AUC of the change in serum LH,[1]; intranasal 3.2 nmol/kg,172.2 ± 64.2 h·IU/L
same,AUC of the change in serum testosterone,[1]; intranasal 3.2 nmol/kg,273.6 ± 158.7 nmol·h/L
same,Max increase from baseline in serum testosterone,[1]; intranasal 3.2 nmol/kg,4.0 ± 1.0 nmol/L
same,Maximum increase from baseline in serum FSH,[1]; intranasal 3.2 nmol/kg,0.3 ± 0.1 IU/L
same,Maximum increase from baseline in serum LH,[1]; intranasal 3.2 nmol/kg,2.5 ± 0.3 IU/L
same,"FSH AUC, mean difference vs placebo",[1]; [5],97.6 h·IU/L
same,"FSH maximum increase, mean difference vs placebo",[1]; [5],0.4 IU/L
same,"LH AUC, mean difference vs placebo",[1]; [5],325.5 h·IU/L
same,"LH maximum increase, mean difference vs placebo",[1]; [5],1.7 IU/L
same,"Testosterone AUC, mean difference vs placebo",[1]; [5],329.7 nmol·h/L
same,"Testosterone max increase, mean difference vs placebo",[1]; [5],0.9 nmol/L
same,AUC of the change in serum FSH,[1]; intranasal 6.4 nmol/kg,37.3 ± 16.2 h·IU/L
same,AUC of the change in serum LH,[1]; intranasal 6.4 nmol/kg,300.2 ± 79.2 h·IU/L
same,AUC of the change in serum testosterone,[1]; intranasal 6.4 nmol/kg,145.9 ± 158.5 nmol·h/L
same,Max increase from baseline in serum testosterone,[1]; intranasal 6.4 nmol/kg,3.4 ± 0.8 nmol/L
same,Maximum increase from baseline in serum FSH,[1]; intranasal 6.4 nmol/kg,0.4 ± 0.1 IU/L
same,"Serum FSH over the sampling period, mean difference vs placebo",[1]; [6],0.4 IU/L
same,"Serum LH over the sampling period, mean difference vs placebo",[1]; [6],1.3 IU/L
same,"FSH AUC, mean difference vs placebo",[1]; [7],156.6 h·IU/L
same,"FSH maximum increase, mean difference vs placebo",[1]; [7],0.7 IU/L
same,"LH AUC, mean difference vs placebo",[1]; [7],621.1 h·IU/L
same,"LH maximum increase, mean difference vs placebo",[1]; [7],3.1 IU/L
same,"Testosterone AUC, mean difference vs placebo",[1]; [7],654.3 nmol·h/L
same,"Testosterone max increase, mean difference vs placebo",[1]; [7],2.4 nmol/L
same,AUC of the change in serum FSH,[1]; intranasal 12.8 nmol/kg,96.3 ± 23.2 h·IU/L
same,AUC of the change in serum LH,[1]; intranasal 12.8 nmol/kg,595.7 ± 98.3 h·IU/L
same,AUC of the change in serum testosterone,[1]; intranasal 12.8 nmol/kg,470.4 ± 144.0 nmol·h/L
same,Time of maximal increase in serum testosterone,[1]; intranasal 12.8 nmol/kg,150 min
same,Max increase from baseline in serum testosterone,[1]; intranasal 12.8 nmol/kg,4.9 ± 0.7 nmol/L
same,Maximum increase from baseline in serum FSH,[1]; intranasal 12.8 nmol/kg,0.7 ± 0.2 IU/L
same,Maximum increase from baseline in serum LH,[1]; intranasal 12.8 nmol/kg,4.45 IU/L and 4.4 ± 0.6 IU/L
same,"Serum FSH over the sampling period, mean difference vs placebo",[1]; [8],0.6 IU/L
same,"Serum LH over the sampling period, mean difference vs placebo",[1]; [8],2.5 IU/L
same,"Serum testosterone, mean difference vs placebo at peak levels from 120 min",[1]; [8],1.91 nmol/L
same,"FSH AUC, mean difference vs placebo",[1]; [9],147.6 h·IU/L
same,"FSH maximum increase, mean difference vs placebo",[1]; [9],0.7 IU/L
same,"LH AUC, mean difference vs placebo",[1]; [9],574.4 h·IU/L
same,"LH maximum increase, mean difference vs placebo",[1]; [9],2.9 IU/L
same,"Testosterone AUC, mean difference vs placebo",[1]; [9],630.3 nmol·h/L
same,"Testosterone max increase, mean difference vs placebo",[1]; [9],3.1 nmol/L
same,AUC of the change in serum FSH,[1]; intranasal 25.6 nmol/kg,87.3 ± 66.2 h·IU/L
same,AUC of the change in serum LH,[1]; intranasal 25.6 nmol/kg,549.0 ± 108.6 h·IU/L
same,AUC of the change in serum testosterone,[1]; intranasal 25.6 nmol/kg,446.5 ± 287.4 nmol·h/L
same,Max increase from baseline in serum testosterone,[1]; intranasal 25.6 nmol/kg,5.6 ± 1.6 nmol/L
same,Maximum increase from baseline in serum FSH,[1]; intranasal 25.6 nmol/kg,0.8 ± 0.3 IU/L
same,Maximum increase from baseline in serum LH,[1]; intranasal 25.6 nmol/kg,4.3 ± 0.6 IU/L
same,"Serum LH over the sampling period, mean difference vs placebo","[1]; intranasal 25.6 nmol/kg, two-way ANOVA",2.3 IU/L
same,Time of peak stimulation of serum LH after administration,[1]; intranasal 3.2-25.6 nmol/kg,30 to 45 min
same,AUC of the change in serum FSH,[2]; [10],-36.1 ± 23.4 h·IU/L
same,AUC of the change in serum LH,[2]; [10],96.0 ± 45.8 h·IU/L
same,Maximum increase from baseline in serum FSH,[2]; [11],0.3 ± 0.1 IU/L
same,Maximum increase from baseline in serum LH,[2]; [11],1.4 ± 0.3 IU/L
same,"FSH AUC, mean difference vs placebo",[2]; [12],76.4 h·IU/L
same,"FSH maximum increase, mean difference vs placebo",[2]; [12],0.4 IU/L
same,"LH AUC, mean difference vs placebo",[2]; [12],179.8 h·IU/L
same,"LH maximum increase, mean difference vs placebo",[2]; [12],1.0 IU/L
same,Effect on circulating oestradiol and progesterone levels,"[2]; intranasal 12.8 nmol/kg, acute 4-h time-course",no significant effects
same,"Serum FSH over time, mean difference vs placebo",[2]; [13],0.3 IU/L
same,"Serum LH over time, mean difference vs placebo",[2]; [13],0.7 IU/L
same,Intravenous half-life,[3]; study protocol (supplement 2),28 min
same,Circulating half-life,[3],27.6 min
